Measurements published in PMC8689208, “Structure of a monomeric photosystem II core complex from a cyanobacterium acclimated to far-red light reveals the functions of chlorophylls d and f” (The Journal of Biological Chemistry, 2021).

Target: T1, apo-FRL-PSII (reaction centre PsbA3/PsbD3 sites) (Synechococcus sp. PCC 7335, UniProt B4WKI3+Z9EN74SDD1)
T1 construct: native monomeric core complex from FRL-acclimated cells, ~226 kDa modelled; His6 tag at C-terminus of PsbC2; lacks OEC, extrinsic subunits and PsbH2 in map; PsbF2 assignment tentative; one unknown helix; with Photosystem II CP47 reaction center protein; Photosystem II CP43 reaction center protein; Cytochrome b559 subunit alpha; Cytochrome b559 subunit beta; Photosystem II reaction center protein I; Photosystem II reaction center protein K
Assay: cryo-EM structure, […] Å
Type: binding
Settings: QA site; QB absent

SMILES: CC(C)=CCC/C(C)=C/CC/C(C)=C/CC/C(C)=C/CC/C(C)=C/CC/C(C)=C/CC/C(C)=C/CC/C(C)=C/CC/C(C)=C/CC1=CC(=O)C(C)=C(C)C1=O [plastoquinone]
- cryo-EM structure, 2.25 Å: one heme b, one plastoquinone, one NH-Fe ion
